“Also recorded” adds a separate entry of the source. Where a name gives a salt, the structure may show the parent alone.
Tests used:
[1] = system: airway smooth muscle (ASM) in tracheal rings from OVA sensitized/challenged mice; experiment: Inhibition of acetylcholine-induced ASM contraction in tracheal rings (ex vivo myography, 30 min pretreatment); parameters: species or system BALB/c mice; details: for ASM contraction to acetylcholine: isolated compound at 6.0 μg/ml, FIG. 6A/6B; for ASM contraction to acetylcholine / Ach-induced contraction (10-4 M Ach, percent of 60 mM KCL): 30 min pretreatment; for Ach-induced contraction (10-4 M Ach, percent of 60 mM KCL): 10 μg/ml (Matrine 40 μM, Sophocarpine 40 μM, Oxymatrine 37 μM); for Ach-induced contraction (10-4 M Ach, percent of 60 mM KCL) / relative potency among the matrine type alkaloids: FIGS. 12, 13; for relative potency among the matrine type alkaloids: 10 μg/ml
Description: To determine which herbal constituents in ASHMI™ have a direct inhibitory effect on ASM contraction, an asthmatic mouse model was induced by ovalbumin (OVA) sensitization and challenge as described previously (Zhang et al., 2010). Tracheal rings from asthmatic mice were treated with an aq. extract of ASHMI™ (100 μg/ml), or individual herb aq. extracts, G. lucidum (35 μg/ml), S. flavescens (45 μg/ml) and G. uralenisis (20 μg/ml), for 30 min prior to ex vivo acetylcholine provocation. The ASHMI™ concentration was based on our previous publication (Zhang et al., 2010). Concentrations of individual herb extracts were equivalent to their individual concentrations in ASHMI™.
Balb/c mice were sensitized by intraperitoneal (i.p.) injection of 200 μg OVA plus 2 mg of aluminum hydroxide (alum) in 400 μl of PBS on days 0 and 7. Mice were challenged intratracheally (i.t.) with 100 μg of OVA in 50 μl of PBS weekly for 2 weeks (days 14 and 21). Mice were challenged i.t. once daily with 100 μg of OVA (50 μl) on 2 consecutive days (days 28 and 29) 48 hr before sacrifice and tissue harvesting.
Forty-eight hrs after the last i.t. OVA challenge, mice were sacrificed and tracheas were excised and cut into 3 tracheal rings as previously described. Each tracheal ring was attached to a pair of mounting pins in the organ chamber of a Myograph System Model 610M system (AD Instruments, Denver, Colo.) and bathed in a chamber containing physiological salt solution (PSS (In g/L—NaCl: 6.95, KCl: 0.35, MgSO4.7H2O: 0.28, KH2PO4: 0.1561, CaCl2.2H2O: 0.36, NaHCO3: 2.1, EDTA: 0.01, Glucose: 1.09, pH=7.4). All chambers were maintained at 37° C. and were continuously bubbled with 100% 02. The change of tracheal ring tension was recorded by Power Lab Chart recording software (AD Instruments). After incubation at 37° C. for 15 min at baseline tension, passive tension applied to the tracheal ring was adjusted to 1.00 mN. Following stabilization of passive tension, tracheal rings were contracted using 60 mM KCl twice, to assess ASM contractility. Tracheal rings were washed with PSS buffer 3 times and allowed to rest at 1.00 mN for 30 min after each stimulation. The individual compounds as indicated in FIG. 14 were dissolved in DMSO and then re-suspended in PBS (DMSO <0.1%). Each drug was added to the chamber at the concentrations indicated and the pre-incubation time was 30 min. Tracheal rings were then contracted with incremental doses of acetylcholine (from 10^-8 M to 10^-4 M). PBS (vehicle) treatment was used as control.

tracheal tissue (rings) = experiment: Tracheal ring viability: contractile response to KCl after washout; parameters: species or system mouse; details: 10 μg/ml
Description: FIG. 12. Representative real time tracing of murine tracheal ring contractions. Rings were first stimulated with 60 mM KCL to assess contractile potential. Compounds (Matrine (40 μM), Oxymatrine (37 μM), sophocarpine (40 μM) or PSS (vehicle) were added 30 minutes prior to stimulation with 10^-4 M Ach. Ring viability was tested 90 minutes after Ach washout.
We first generated a methylene chloride (MC) extract from an aq. extract of S. flavescens to obtain a flavonoid rich extract (designated MC extract, FIG. 2). […] We next generated 5 sub-fractions (MC-F1, 2, 3, 4 and 5) using preparative HPLC and tested each at 6.0 μg/ml. […] The inhibition of ASM contraction by MC-F1 was concentration-dependent (FIG. 4B) and non-toxic as contractile responses to KCl were present after buffer washings (FIG. 4C).
Having observed that Fraction 3 of S. flavescens was a potent inhibitor of Ach-stimulated tracheal contraction we tested major compounds present in this fraction in myography experiments. According to investigations using mass spectrometric techniques, the major compounds identified in SF Fraction 3 were the matrine type alkaloids-Matrine, Oxymatrine and Sophocarpine.

[2] = system: acetylcholine pre-contracted sensitized murine tracheal rings (ASM); experiment: Relaxation of acetylcholine pre-contracted tracheal rings; parameters: species or system mouse; details: for effect of co-incubation with β2-AR antagonist ICI 118,551 on relaxation: FIG. 7A/7B
Description: FIGS. 7A-7C. Relaxation effects of trifolirhizin or the β2-AR agonist fenoterol on acetylcholine pre-contracted ASM. (A). The relaxation effect of trifolirhizin on acetylcholine-stimulated tracheal rings with or without ICI 118,551 (ICI). (B). The relaxation effect of the β2-AR agonist fenoterol on acetylcholine-contracted tracheal rings with or without ICI 118,551; Relaxation is expressed as the percent of residual contractile tone remaining at 15 min after trifolirhizin or fenoterol addition. (C). Representative myography tracings of relaxation experiment using fenoterol (upper tracing), PBS control (middle tracing) or trifolirhizin- (lower tracing) treated sensitized mouse tracheal rings (***, p≤0.001 compared to PBS control). Note the magnitude of total relaxation achieved with trifolirhizin compared to the β2-AR agonist fenoterol.
The primary therapy for acute constriction of airway smooth muscle is β2-AR agonists which are inhaled for the acute relaxation of hyperresponsive airway smooth muscle. We performed studies with trifolirhizin to determine whether it could relax pre-contracted airway smooth muscle and how the magnitude of relaxation compared to a classic β2-AR agonist fenoterol. In order to investigate the relaxation effect of trifolirhizin on ASM, we tested this isolated compound on acetylcholine pre-contracted sensitized murine tracheal rings. […] The maximal relaxation was 85% of the initial contractile tone at a trifolirhzin concentration of 20 μg/ml (FIG. 7A). In parallel studies the β2-AR agonist fenoterol only achieved 25% relaxation even at the highest concentration tested (10^-5 M).

[3] = system: airway resistance in response to methacholine; experiment: Airway resistance to nebulized methacholine, forced oscillation technique (Flexivent); format: in vivo, male A/J mice; details: nebulized 25 ul of 60 ug/ml, 15 minutes before nebulized methacholine; N=3; FIG. 15
Description: FIG. 15: Airway resistance in male A/J 20 g mice pretreated with nebulization of vehicle (25 ul 0.3% DMSO) or trifolirhizin (25 ul of 60 ug/ml) 15 minutes before nebulized methacholine as measured by the forced oscillation technique (Flexivent, Scireq). N=3.

COc1ccc(-c2coc3cc(O)ccc3c2=O)cc1O [3′,7-dihydroxy-4′-methoxy-isoflavone]
ASM contraction to acetylcholine [1]: had no effect on ASM contraction

C[C@@H]1C[C@H]2[C@@H]3CCC4=CC(=O)C=C[C@]4(C)[C@@]3(F)[C@@H](O)C[C@]2(C)[C@@]1(O)C(=O)CO [Dexamethasone, dexamethasone, reference compound]
acetylcholine-induced ASM contractions ([1]; 10 μM acute pretreatment, FIG. 6D): did not inhibit

O=C1CCC[C@@H]2[C@H]3CCCN4CCC[C@@H](CN12)[C@@H]34 [Matrine]
toxicity to tracheal tissue (response to KCL 90 minutes after washout) (tracheal tissue (rings)): did not exhibit toxicity to tracheal tissue | effect of Indomethacin on the suppressive effect on tracheal contractility [1]: inhibited by Indomethacin | Ach-induced contraction (10-4 M Ach, percent of 60 mM KCL) [1]: inhibited Ach-induced contraction | relative potency among the matrine type alkaloids [1]: most potent; also recorded: more effective than Oxymatrine

O=C1CCC[C@@H]2[C@H]3CCC[N+]4([O-])CCC[C@@H](CN12)[C@@H]34 (stereo partly shown) [Oxymatrine]
effect of Indomethacin on the suppressive effect on tracheal contractility [1]: inhibited by Indomethacin | Ach-induced contraction (10-4 M Ach, percent of 60 mM KCL) [1]: inhibited Ach-induced contraction | relative potency among the matrine type alkaloids [1]: weakest inhibitor of contraction

O=C1C=CC[C@@H]2[C@H]3CCCN4CCC[C@@H](CN12)[C@@H]34 [Sophocarpine]
effect of Indomethacin on the suppressive effect on tracheal contractility [1]: inhibited by Indomethacin | Ach-induced contraction (10-4 M Ach, percent of 60 mM KCL) [1]: inhibited Ach-induced contraction | relative potency among the matrine type alkaloids [1]: more effective than Oxymatrine

CC(Cc1ccc(O)cc1)NCC(O)c1cc(O)cc(O)c1 (stereo not shown) [fenoterol, fenoterol hydrobromide, reference compound]
effect of co-incubation with β2-AR antagonist ICI 118,551 on relaxation [2]: completely blocked | relaxation achieved ([2]; highest concentration tested (10^-5 M), parallel studies, FIG. 7B): 25% | time course of relaxation effect ([2]; increasing time of incubation): slowly lost its effect

OC[C@H]1O[C@@H](Oc2ccc3c(c2)OC[C@H]2c4cc5c(cc4O[C@@H]32)OCO5)[C@H](O)[C@@H](O)[C@@H]1O [trifolirhizin]
airway resistance in response to methacholine [3]: significantly attenuated increased airway resistance | acetylcholine-induced contraction ([1]; concentrations lower than 6.0 μg/ml, FIG. 6B): not at lower concentrations | ASM contraction to acetylcholine [1]: significantly inhibited acetylcholine-induced contraction | effect of β2-AR antagonist ICI 118,551 on the compound's blockade of acetylcholine contraction ([1]; trifolirhizin 6.0 μg/ml with ICI 118,551 150 μM, 30 min preincubation, FIG. 6C): had no effect; also recorded: did not block the effect | maximal relaxation (of the initial contractile tone) ([2]; 20 μg/ml, 10^-5 M acetylcholine pre-contraction, FIG. 7A): 85% | effect of co-incubation with β2-AR antagonist ICI 118,551 on relaxation [2]: without effect | relaxation of pre-contracted tracheal rings, dose dependence ([2]; rings stimulated by 10^-5 M acetylcholine, FIG. 7A): dose-dependent manner

Source: patent US10406191B2, “Compounds, extracts and methods from chinese medicinal herb sophora flavescens that inhibit airway contraction” (priority 2013, dated 2019)
